Laboratory results as given in ChEMBL document CHEMBL3885881, “DrugMatrix”.
Where “and” joins values, the source holds several entries; their conditions need not be identical. Equal values may be shown once.

Organism: Rattus norvegicus
Assay: DrugMatrix - Regimen: Daily Repeat
Type: toxicity, organism-based, Sprague-Dawley
Parameters: regimen Daily Repeat, gender Male, age 6-8 weeks
Settings: in vivo, po, route oral GAVAGE, vehicle .5 % CMC; for ABSOLUTE BASOPHIL / ABSOLUTE EOSINOPHIL / ABSOLUTE LYMPHOCYTE / ABSOLUTE MONOCYTE / BASOPHIL / EOSINOPHIL / ERYTHROCYTE COUNT / HEMATOCRIT / HEMOGLOBIN / LEUKOCYTE COUNT / LYMPHOCYTE / MEAN CORPUSCULAR HEMOGLOBIN / MEAN CORPUSCULAR HEMOGLOBIN CONCENTRATION / MEAN CORPUSCULAR VOLUME / MONOCYTE / NEUTROPHIL / PLATELET COUNT / ABSOLUTE SEGMENTED NEUTROPHIL / NUCLEATED RED BLOOD CELLS: tissue Blood; for ALANINE AMINOTRANSFERASE / ALBUMIN / ALKALINE PHOSPHATASE / ASPARTATE AMINOTRANSFERASE / BLOOD UREA NITROGEN / CARBON DIOXIDE / CHLORIDE / CHOLESTEROL / CREATINE PHOSPHOKINASE / CREATININE / GLUCOSE / LACTATE DEHYDROGENASE / LIPASE / PHOSPHORUS / POTASSIUM / SODIUM / TOTAL BILIRUBIN / TOTAL PROTEIN / URIC ACID: tissue Plasma
[1] = 10 mg/kg, […], dose level Low, time 14 day
[2] = 100 mg/kg, 72 h, dose level High, time 3 day
[3] = 100 mg/kg, 120 h, dose level High, time 5 day
[4] = 100 mg/kg, […], dose level High, time 14 day

`CN(C)CCN(Cc1cccs1)c1ccccn1` showed an ABSOLUTE BASOPHIL [1] of 83.3 cells/µL, an ABSOLUTE EOSINOPHIL [1] of 66.7 cells/µL and an ABSOLUTE LYMPHOCYTE [1] of 10000 cells/µL. For the same molecule, the ABSOLUTE MONOCYTE [1] was 240 cells/µL, the BASOPHIL [1] was 0.53% and the EOSINOPHIL [1] was 0.52%. The “ERYTHROCYTE COUNT” value [1] was 7.47 x10E6/uL, the HEMATOCRIT [1] was 47.12% and the HEMOGLOBIN [1] was 14.82 G/DL. The “LEUKOCYTE COUNT” value [1] was 12.98 x10E3/uL, the LYMPHOCYTE [1] was 76.93% and the “MEAN CORPUSCULAR HEMOGLOBIN” value [1] was 19.85 pg. For the same molecule, the “MEAN CORPUSCULAR HEMOGLOBIN CONCENTRATION” value [1] was 31.43 G/DL, the “MEAN CORPUSCULAR VOLUME” value [1] was 63.1 fL and the MONOCYTE [1] was 1.83%. The NEUTROPHIL [1] was 19.2%, the “PLATELET COUNT” value [1] was 1264.5 x10E3/uL and the “ALANINE AMINOTRANSFERASE” value [1] was 47.67 u/L. For the same molecule, the ALBUMIN [1] was 3.87 G/DL, the “ALKALINE PHOSPHATASE” value [1] was 477 u/L and the “ASPARTATE AMINOTRANSFERASE” value [1] was 81.33 u/L. For the same molecule, the “BLOOD UREA NITROGEN” value [1] was 14.83 mg/dL, the “CARBON DIOXIDE” value [1] was 38.33 mmol/L and the CHLORIDE [1] was 105.17 MEQ/L. For the same molecule, the CHOLESTEROL [1] was 68.67 mg/dL, the “CREATINE PHOSPHOKINASE” value [1] was 223.17 u/L and the CREATININE [1] was 0.68 mg/dL. For the same molecule, the GLUCOSE [1] was 155.83 mg/dL, the “LACTATE DEHYDROGENASE” value [1] was 95.83 u/L and the LIPASE [1] was 18.67 u/L. The PHOSPHORUS [1] was 10.72 mg/dL, the POTASSIUM [1] was 6.3 MEQ/L and the SODIUM [1] was 151.83 MEQ/L. For the same molecule, the “TOTAL BILIRUBIN” value [1] was 0.27 mg/dL, the “TOTAL PROTEIN” value [1] was 6.77 G/DL and the “URIC ACID” value [1] was 1.22 mg/dL. For the same molecule, the “ABSOLUTE BASOPHIL” value [2] was 0 CELLS/uL, the “ABSOLUTE EOSINOPHIL” value [2] was 62.67 CELLS/uL and the “ABSOLUTE LYMPHOCYTE” value [2] was 11170 CELLS/uL. For the same molecule, the “ABSOLUTE MONOCYTE” value [2] was 125.33 CELLS/uL, the “ABSOLUTE SEGMENTED NEUTROPHIL” value [2] was 1608.67 CELLS/uL and the BASOPHIL [2] was 0%. For the same molecule, the EOSINOPHIL [2] was 0.33%, the “ERYTHROCYTE COUNT” value [2] was 5.22 x10E6/uL and the HEMATOCRIT [2] was 32.67%. For the same molecule, the HEMOGLOBIN [2] was 12.17 G/DL, the “LEUKOCYTE COUNT” value [2] was 12.97 x10E3/uL and the LYMPHOCYTE [2] was 81.67%. The “MEAN CORPUSCULAR HEMOGLOBIN” value [2] was 23.37 pg, the “MEAN CORPUSCULAR HEMOGLOBIN CONCENTRATION” value [2] was 37.27 G/DL and the “MEAN CORPUSCULAR VOLUME” value [2] was 62.6 fL. For the same molecule, the MONOCYTE [2] was 0.67%, the NEUTROPHIL [2] was 17.33% and the “NUCLEATED RED BLOOD CELLS” value [2] was 0 /100WBC. For the same molecule, the “PLATELET COUNT” value [2] was 1093.67 x10E3/uL, the “ALANINE AMINOTRANSFERASE” value [2] was 71.33 u/L and the ALBUMIN [2] was 3.77 G/DL. The “ALKALINE PHOSPHATASE” value [2] was 555.67 u/L, the “ASPARTATE AMINOTRANSFERASE” value [2] was 110.67 u/L and the “BLOOD UREA NITROGEN” value [2] was 15.67 mg/dL. For the same molecule, the “CARBON DIOXIDE” value [2] was 32.33 mmol/L, the CHLORIDE [2] was 99.67 MEQ/L and the CHOLESTEROL [2] was 134.33 mg/dL. For the same molecule, the “CREATINE PHOSPHOKINASE” value [2] was 382 u/L, the CREATININE [2] was 0.22 mg/dL and the GLUCOSE [2] was 140 mg/dL. The “LACTATE DEHYDROGENASE” value [2] was 129.67 u/L, the LIPASE [2] was 11.33 u/L and the PHOSPHORUS [2] was 12.07 mg/dL. For the same molecule, the POTASSIUM [2] was 5.88 MEQ/L, the SODIUM [2] was 143.37 MEQ/L and the “TOTAL BILIRUBIN” value [2] was 0.47 mg/dL. The “TOTAL PROTEIN” value [2] was 5.77 G/DL, the “URIC ACID” value [2] was 0.43 mg/dL and the “ABSOLUTE SEGMENTED NEUTROPHIL” value [3] was 1008.67 CELLS/uL. For the same molecule, the BASOPHIL [3] was 0.97% and 0%, the EOSINOPHIL [3] was 0.55% and 0% and the “ERYTHROCYTE COUNT” value [3] was 7.33 x10E6/uL and 5.52 x10E6/uL. For the same molecule, the HEMATOCRIT [3] was 45.42% and 34.13%, the HEMOGLOBIN [3] was 14.18 G/DL and 13.07 G/DL and the “LEUKOCYTE COUNT” value [3] was 20.78 x10E3/uL and 14.4 x10E3/uL. For the same molecule, the LYMPHOCYTE [3] was 80.47% and 90%, the “MEAN CORPUSCULAR HEMOGLOBIN” value [3] was 19.32 pg and 23.73 pg and the “MEAN CORPUSCULAR HEMOGLOBIN CONCENTRATION” value [3] was 31.2 G/DL and 38.33 G/DL. The “MEAN CORPUSCULAR VOLUME” value [3] was 61.95 fL and 61.97 fL, the MONOCYTE [3] was 3.85% and 3% and the NEUTROPHIL [3] was 12.68% and 7%. The “NUCLEATED RED BLOOD CELLS” value [3] was 0 /100WBC, the “PLATELET COUNT” value [3] was 1277.75 x10E3/uL and 1530.33 x10E3/uL and the “ALANINE AMINOTRANSFERASE” value [3] was 138.25 u/L and 130.33 u/L. For the same molecule, the ALBUMIN [3] was 3.45 G/DL and 4.23 G/DL, the “ALKALINE PHOSPHATASE” value [3] was 618 u/L and 531.33 u/L and the “ASPARTATE AMINOTRANSFERASE” value [3] was 321 u/L and 308.67 u/L. For the same molecule, the “BLOOD UREA NITROGEN” value [3] was 15.75 mg/dL and 15.33 mg/dL, the “CARBON DIOXIDE” value [3] was 37 mmol/L and 36.67 mmol/L and the CHLORIDE [3] was 104.75 MEQ/L and 97.67 MEQ/L. For the same molecule, the CHOLESTEROL [3] was 98.5 mg/dL and 113.67 mg/dL, the “CREATINE PHOSPHOKINASE” value [3] was 398.5 u/L and 603.33 u/L and the CREATININE [3] was 0.5 mg/dL and 0.25 mg/dL. For the same molecule, the GLUCOSE [3] was 151.25 mg/dL and 120.33 mg/dL, the “LACTATE DEHYDROGENASE” value [3] was 162.5 u/L and 250.33 u/L and the LIPASE [3] was 17 u/L and 9.67 u/L. The PHOSPHORUS [3] was 11.03 mg/dL and 12.1 mg/dL, the POTASSIUM [3] was 6.62 MEQ/L and 5.82 MEQ/L and the SODIUM [3] was 151 MEQ/L and 142.77 MEQ/L. The “TOTAL BILIRUBIN” value [3] was 0.4 mg/dL and 0.37 mg/dL, the “TOTAL PROTEIN” value [3] was 5.72 G/DL and 6.2 G/DL and the “URIC ACID” value [3] was 1.07 mg/dL and 0.63 mg/dL. For the same molecule, the ABSOLUTE BASOPHIL [4] was 150 cells/µL, the ABSOLUTE EOSINOPHIL [4] was 75 cells/µL and the ABSOLUTE LYMPHOCYTE [4] was 12900 cells/µL. It also gave an ABSOLUTE MONOCYTE [4] of 390 cells/µL, a BASOPHIL [4] of 0.77% and an EOSINOPHIL [4] of 0.5%. For the same molecule, the “ERYTHROCYTE COUNT” value [4] was 8.39 x10E6/uL, the HEMATOCRIT [4] was 49.5% and the HEMOGLOBIN [4] was 15.85 G/DL. The “LEUKOCYTE COUNT” value [4] was 15.58 x10E3/uL, the LYMPHOCYTE [4] was 82.28% and the “MEAN CORPUSCULAR HEMOGLOBIN” value [4] was 18.95 pg. For the same molecule, the “MEAN CORPUSCULAR HEMOGLOBIN CONCENTRATION” value [4] was 32.1 G/DL, the “MEAN CORPUSCULAR VOLUME” value [4] was 59.02 fL and the MONOCYTE [4] was 2.45%. For the same molecule, the NEUTROPHIL [4] was 12.85%, the “PLATELET COUNT” value [4] was 1440.5 x10E3/uL and the “ALANINE AMINOTRANSFERASE” value [4] was 70.83 u/L. The ALBUMIN [4] was 3.47 G/DL, the “ALKALINE PHOSPHATASE” value [4] was 569.83 u/L and the “ASPARTATE AMINOTRANSFERASE” value [4] was 277.5 u/L. For the same molecule, the “BLOOD UREA NITROGEN” value [4] was 17.17 mg/dL, the “CARBON DIOXIDE” value [4] was 33.83 mmol/L and the CHLORIDE [4] was 106.33 MEQ/L. For the same molecule, the CHOLESTEROL [4] was 60.17 mg/dL, the “CREATINE PHOSPHOKINASE” value [4] was 264.5 u/L and the CREATININE [4] was 0.7 mg/dL. For the same molecule, the GLUCOSE [4] was 134.5 mg/dL, the “LACTATE DEHYDROGENASE” value [4] was 165.67 u/L and the LIPASE [4] was 22.2 u/L. For the same molecule, the PHOSPHORUS [4] was 11.25 mg/dL, the POTASSIUM [4] was 6.93 MEQ/L and the SODIUM [4] was 150.83 MEQ/L. For the same molecule, the “TOTAL BILIRUBIN” value [4] was 0.65 mg/dL, the “TOTAL PROTEIN” value [4] was 5.93 G/DL and the “URIC ACID” value [4] was 1.82 mg/dL.
